According to patent US20260294852A1, “COSMETIC COMPOSITION FOR PREVENTING, ALLEVIATING OR AMELIORATING ALOPECIA” (LG CHEM, LTD., priority 2023, published 2026):

Key:
Ki67 = assay: Expression of cell proliferation-related factor protein Ki67 (immunofluorescence) in cultured scalp tissue; format: cell-based, human; conditions: 0.1% 3HP, compared to the negative control group
Procedure: (§1) The ratio of hair follicle telogen and the expression level of hair follicle cell proliferation-related factor proteins depending on whether 3-hydroxypropionic acid was applied or not were evaluated according to the following methods.
The human hair follicles or scalp tissues provided for research purposes (IRB No. 4-2023-1052; Institutional Review Board, Severance Medical Center, Yonsei University College of Medicine) were washed several times with PBS to remove residual impurities, and randomly divided into each group. […]
After the scalp tissue was treated with the test composition for 24 hours, the obtained tissue was prepared into a frozen block, and frozen sectioned at a thickness of 5 μm using a Cryostat microtome (Leica Biosystems, Germany), and the tissue sections were attached onto Silane-coated slides. […] Finally, the tissues were fixed with a fixative containing blue fluorescent DAPI (VECTASHIELD® mounting medium with DAPI; Vector laboratories) that stains the cell nucleus, and then images were taken at 100× magnification using a fluorescence microscope (M2; Zeiss). The percentage of Ki67-expressing cells among the total cells labeled with DAPI was measured from the captured images, and a higher value means a higher number of Ki67-expressing cells.

[1] = test system: 5α-reductase gene (Srd5α1); assay: 5α-reductase gene expression level (real-time PCR, GAPDH-normalised) in human follicle dermal papilla cells; format: cell-based; conditions: for mrna remaining at 0.0125 % / mrna remaining at 0.025 % / mrna remaining at 0.05 %: Homo sapiens, 24 h, 24 hours; for mrna remaining at 0.0125 %: 3HP 0.0125 wt. %; for mrna remaining at 0.025 %: 3HP 0.025 wt. %; for mrna remaining at 0.05 %: 3HP 0.05 wt. %
Procedure: (§2) Human follicle dermal papilla cells (PromoCell GmbH) were cultured in human follicle dermal papilla cells growth medium (PromoCell GmbH) supplemented with fetal calf serum (FCS), bovine pituitary extract (BPE), basic fibroblast growth factor (bFGF), and insulin at 37° C. and 5% CO2.
(§3) The cultured human follicle dermal papilla cells were divided into 5×10^4 cells in a 96-well plate, and when the cells reached 80% or more confluency, they were treated with the 3-hydroxypropionic acid aqueous solution according to Preparation Example 1 at four concentrations (3HP concentrations: 0 wt. %, 0.0125 wt. %, 0.025 wt. %, and 0.05 wt. %), and then cultured for 24 hours. Then, the total RNA in the cells was extracted, and cDNA was synthesized from the extracted RNA. The synthesized cDNA was subjected to real-time polymerase chain reaction. And, the relative quantitative analysis of each gene was performed using GAPDH (one of the house-keeping genes). The relative quantification (RQ) value was calculated according to the following Equation 2.
(§4) In the Equation 2, ‘Treatment’ is the group treated with 3HP; ‘Control’ is the group not treated with 3HP; ‘Target gene’ is Srd5α1 and TGF-β1, and ‘House-keeping gene’ is GAPDH.

human hair follicles = assay: Evaluation of the ratio of hair follicle telogen in DHT-treated anagen hair follicle tissue (ex vivo culture); format: cell-based; conditions: for Telogen ratio: 6 days vs day 0
Procedure: as §1
The human hair follicles or scalp tissues provided for research purposes (IRB No. 4-2023-1052; Institutional Review Board, Severance Medical Center, Yonsei University College of Medicine) were washed several times with PBS to remove residual impurities, and randomly divided into each group. The hair follicles and scalp tissues were cultured in Williams' Medium E (Sigma) supplemented with 2 mM L-glutamine (Sigma-Aldrich), 10 μg/ml insulin (Sigma-Aldrich), 100 ng/ml hydrocortisone (Sigma-Aldrich), 0.1% fungizone (Gibco, USA), and 1% antibiotic-antimycotic (Gibco), and 1% penicillin-[…] (Gibco) at 37° C. in 5% CO2.
To induce the telogen in the anagen hair follicle tissue, the test composition was treated with 1 μM dihydrotestosterone (DHT). The medium was replaced every 3 days and cultured for 6 days. The ratio of hair follicle telogen was visually evaluated based on the ratio of hair follicles in which the telogen occurred for 6 days compared to day 0.

[2] = test system: Human follicle dermal papilla cells; assay: Human follicle dermal papilla cell viability (WST / CCK-8); format: cell-based; conditions: for Human follicle dermal papilla cell viability: 24 hours
Procedure: as §2
The cultured human follicle dermal papilla cells were divided into 5×10^3 cells in a 96-well plate, and when the cells reached 80% or more confluency, they were treated with the 3-hydroxypropionic acid aqueous solution according to Preparation Example 1 at four concentrations ([…]), and then cultured for 24 hours. WST substrate solution (high sensitivity water soluble tetrazolium salt, CCK-8, DOJINDO) was then added to the medium, and cultured at 37° C. for 2 hours.
During the culture, a […] formazan was produced by the reaction between WST and intracellular dehydrogenase, and the absorbance (OD, wavelength 450 nm) was measured.
In Equation 1, the ‘experimental group’ is the group treated with an aqueous solution containing 3HP; the ‘control group’ is the medium containing only the WST substrate; and the ‘negative control group’ is the group in which a medium containing WST substrate was treated with an aqueous solution of 0% 3HP.

TGF-β1 gene = TGF-β1 gene expression level (real-time PCR, GAPDH-normalised) in human follicle dermal papilla cells; format: cell-based; conditions: for mrna remaining at 0.0125 % / mrna remaining at 0.025 % / mrna remaining at 0.05 %: Homo sapiens, 24 h, 24 hours; for mrna remaining at 0.0125 %: 3HP 0.0125 wt. %; for mrna remaining at 0.025 %: 3HP 0.025 wt. %; for mrna remaining at 0.05 %: 3HP 0.05 wt. %
Procedure: as §2, §3, §4

[3] = under the treatment concentration

**Q.** What does the source list for O=C(O)CCO [3HP, 3-hydroxypropionic acid]?
**A.** proliferation effect of hair follicle cells (in words) (Ki67): significantly increased; mrna remaining at 0.0125 % ([1]; single run: Three times): 92.7%; mrna remaining at 0.0125 % ([1]; single run: Two times): 81.5%; mrna remaining at 0.025 % ([1]; single run: Three times): 91.4%; mrna remaining at 0.025 % ([1]; single run: Two times): 88%; mrna remaining at 0.05 % ([1]; single run: Once): 132%; mrna remaining at 0.05 % ([1]; single run: Three times): 135%; mrna remaining at 0.05 % ([1]; single run: Two times): 113%; expression of the 5α-reductase gene (in words) [1, 3]: significantly inhibited; hair follicle telogen ratio (in words) (human hair follicles; 0.1%, 0.5%, and 1.0% 3HP, compared to the DHT control group): significantly decreased; Telogen ratio (human hair follicles; DHT (1 μM) + 0.5% 3HP, DHT alone 40.000): 0.000%; Telogen ratio (human hair follicles; DHT (1 μM) + 1.0% 3HP, DHT alone 40.000): 0.000%; Human follicle dermal papilla cell viability ([2]; 3HP 0.025 wt. %, Average, SD 2.561, p-value 0.012 vs negative control (100%)): 86.684%; Human follicle dermal papilla cell viability ([2]; 3HP 0.05 wt. %, Average, SD 0.735, p-value 0.001 vs negative control (100%)): 85.841%; Human follicle dermal papilla cell viability ([2]; 3HP 0.05 wt. %, single run: Once): 86.465%; Human follicle dermal papilla cell viability ([2]; 3HP 0.1%, Average, SD 2.416, p-value 0.003 vs negative control (100%)): 75.333%; cell viability (in words) ([2]; under the above treatment concentrations): high; mrna remaining at 0.0125 % (TGF-β1 gene; single run: Three times): 78.5%; mrna remaining at 0.0125 % (TGF-β1 gene; single run: Two times): 86.4%; mrna remaining at 0.025 % (TGF-β1 gene; single run: Three times): 65.5%; mrna remaining at 0.025 % (TGF-β1 gene; single run: Two times): 72.3%; mrna remaining at 0.05 % (TGF-β1 gene; single run: Once): 131%; mrna remaining at 0.05 % (TGF-β1 gene; single run: Three times): 118%; mrna remaining at 0.05 % (TGF-β1 gene; single run: Two times): 140%; expression of the TGF-β1 gene (in words) (TGF-β1 gene; [3]): significantly inhibited

**Q.** How did the Telogen ratio (human hair follicles; DHT (1 μM) + 2 ng/ml Biotin, DHT alone 40.000) turn out when O=C(O)CCCC[C@@H]1SC[C@@H]2NC(=O)N[C@@H]21 [Biotin, reference compound] was run?
**A.** 10.000%

**Q.** Which Telogen ratio (human hair follicles; 1 μM DHT alone (telogen inducer), Control 36.667) does the source give for C[C@]12CCC(=O)C[C@@H]1CC[C@@H]1[C@@H]2CC[C@]2(C)[C@@H](O)CC[C@@H]12 [DHT, dihydrotestosterone, reference compound] here?
**A.** 40.000%

**Q.** Which Telogen ratio (human hair follicles; DHT (1 μM) + 0.5 mM Finasteride, DHT alone 40.000) does the source give for CC(C)(C)NC(=O)[C@H]1CC[C@H]2[C@@H]3CC[C@H]4NC(=O)C=C[C@]4(C)[C@H]3CC[C@]12C [Finasteride, reference compound] here?
**A.** 0.000%
